We go through two molecules from article PMC3763640, “Effect of Co-Administration of Rivaroxaban and Clopidogrel on Bleeding Time, Pharmacodynamics and Pharmacokinetics: A Phase I Study” (Pharmaceuticals, 2012).

Data set [1] has as its system healthy male subjects. Description: Bleeding time test (Surgicutt incision, forearm). The settings on record: rivaroxaban 15 mg single dose, clopidogrel 300 mg day 1 + 75 mg day 2, combination with rivaroxaban on day 2; for least squares-mean relative change in bleeding time compared with baseline: 4 h after last drug administration. Type of data set: in vivo, human. Here is the method:
Bleeding time tests were performed in accordance with the protocol reported by the International Committee on Standardization of the Bleeding Time. Bleeding time measurements depend on the method and on who carries out the procedure; therefore, results vary greatly between studies. To reduce variability, one study nurse was specifically trained in the procedure of the test before this study. The same study nurse carried out all measurements at all time points for each subject. […] A sphygmomanometer on the upper arm was inflated to 40 mmHg for 30 seconds before the incision was made and maintained at 40 mmHg until the end of the procedure. The bleeding time incision was made by placing a Surgicutt Adult® (ITC, Edison, NJ, USA) device (used in accordance with the recommendations of the manufacturer, as specified in the package insert) gently against the forearm, perpendicular (vertical) to the elbow crease. […] The bleeding time was measured in seconds as the total duration of blood flow from the wound. […] Statistical evaluations were performed with the use of the SAS® software package version 8.2 at the Department of Global Pharmacometrics (Bayer HealthCare AG, Wuppertal, Germany). […] Student's paired t tests were used to compare treatments for these parameters, and 90% confidence intervals (CIs) for the difference were calculated.

Data set [2] has as its system healthy male subjects. Description: Safety and tolerability. The conditions noted are these: single dose of 15 mg rivaroxaban. Type of data set: in vivo, human. Here is the method:
Safety and tolerability were assessed subjectively and objectively. Subjective assessment was obtained by asking the subjects non-leading questions about the occurrence of any adverse events or by spontaneous reporting of adverse events. Adverse events were classified according to their degree of severity. Objective tolerability was evaluated by monitoring cardiovascular parameters including heart rate, blood pressure and ECG parameters. In addition, blood tests, clinical chemistry, urine test and drug screening were part of the objective assessment.

A further data set deals with platelet aggregation. Description: ADP-stimulated platelet aggregation (Born method). Type of data set: in vivo, human. The conditions noted are these: for platelet aggregation, median relative change from baseline: 4 h after drug administration. Here is the method: A clopidogrel response screening period preceded the study (Figure 1). […] The initial dose of 300 mg clopidogrel was chosen for this study because this loading dose is generally used in patients with ACS [24]. A second dose of 75 mg clopidogrel was selected because this is the standard daily dose recommended by guidelines for use in patients with a variety of relevant conditions, including atrial fibrillation, stroke and ACS [24]. […] This method is based on the turbidimetric determination of cell suspensions. […] Measurement was performed at 650 nm. The individual response of changes of platelet aggregation to baseline was determined using 29 µM ADP in addition to an optimized individual activating regimen using ADP. […] Statistical evaluations were performed with the use of the SAS® software package version 8.2 at the Department of Global Pharmacometrics (Bayer HealthCare AG, Wuppertal, Germany). […] Student’s paired t tests were used to compare treatments for these parameters, and 90% confidence intervals (CIs) for the difference were calculated.

For a further data set, the target named is T1, Factor Xa (Homo sapiens, UniProt P00742).
T1 construct: Blood samples were centrifuged to obtain plasma samples, which were then frozen and stored below −15 °C until analysis; from tissue; host or cells: plasma from blood samples of the healthy male study subjects
Briefly: Factor Xa activity in plasma after dosing. The settings on record: for median value of Factor Xa activity: 4 h after administration, rivaroxaban 15 mg. Type of data set: in vivo. The protocol: (§1) The effects of rivaroxaban and clopidogrel on Factor Xa activity, prothrombin time (PT), activated partial thromboplastin time (aPTT) and HepTest were assessed, as described previously. Factor Xa activities above 0.1 IU/mL (the lower limit of quantification) were determined with a precision of 3.8–6.6% and an accuracy of 96–114%. […] When only clopidogrel was administered (treatment A), blood samples were taken after 4, 8, 24 and 48 h. Blood samples were centrifuged to obtain plasma samples, which were then frozen and stored below −15 °C until analysis.

For data set [3], the system named is GPIIb/IIIa, P-selectin and annexin V. Description: Platelet activation markers by flow cytometry. Type of data set: in vivo, human. The settings on record: 4 h after drug administration, relative to baseline. Here is the method:
To assure uniformity of assays and to minimize sample manipulation, blood samples were mixed gently and processed without delay. Platelet-rich plasma was prepared by slow centrifugation, and platelets were labelled with monoclonal antibodies against GPIIb/IIIa (CD41a), […] (CD62p) and annexin V protein. Samples were analysed using a COULTER® EPICS® XLTM flow cytometer (Beckman Coulter, Inc.; Brea, CA, USA). The average immunofluorescence of the total population or the fraction of activated events was determined and compared with individual control samples before treatment.
On the technique in general: A flow cytometer gives signals particle by particle.

The nature of data set [4]: Prothrombin time (PT) in plasma after dosing. Format: in vivo, human. The protocol: as §1
Data set [5] is described as follows: Activated partial thromboplastin time (aPTT) in plasma after dosing. The settings on record: combination compared with rivaroxaban alone. Format: in vivo, human. The protocol: as §1
The nature of data set [6]: HepTest in plasma after dosing. Type of data set: in vivo, human. The conditions noted are these: combination compared with rivaroxaban alone. Here is the method: as §1
[7] abbreviates: individually optimized concentration of ADP.
Setting [8] is: 12 h after administration of 15 mg rivaroxaban.

Molecules are shown by their SMILES.

T1 sequence (P00742 235-488 limits assumed): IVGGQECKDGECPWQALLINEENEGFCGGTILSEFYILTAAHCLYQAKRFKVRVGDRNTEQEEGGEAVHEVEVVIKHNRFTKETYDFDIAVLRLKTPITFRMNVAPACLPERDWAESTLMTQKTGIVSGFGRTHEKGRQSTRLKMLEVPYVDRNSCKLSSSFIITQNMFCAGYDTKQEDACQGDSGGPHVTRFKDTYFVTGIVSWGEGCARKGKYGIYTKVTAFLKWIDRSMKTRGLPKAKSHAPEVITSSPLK
T1 sequence (P00742 41-179 partner limits assumed): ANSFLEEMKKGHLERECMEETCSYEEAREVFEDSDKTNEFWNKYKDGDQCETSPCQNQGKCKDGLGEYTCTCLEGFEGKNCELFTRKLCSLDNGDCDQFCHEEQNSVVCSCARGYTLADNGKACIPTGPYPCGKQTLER

For `O=C(NC[C@H]1CN(c2ccc(N3CCOCC3=O)cc2)C(=O)O1)c1ccc(Cl)s1` [rivaroxaban], the “least squares-mean relative change in bleeding time compared with baseline” value in the data set on healthy male subjects [1] was 1.1 fold. Further, the “bleeding time, overall least squares-means” value in the data set on healthy male subjects [1] (clopidogrel responders) stood at 1.13 times baseline. Besides, in the data set on healthy male subjects [2], the “safety and tolerability” value was “safe and well tolerated”. Also, the entries for the “platelet aggregation, median relative change from baseline” value with platelet aggregation (29 µM ADP) and in the data set on platelet aggregation (setting [7]) were 1.1 and 0.9, respectively. Moreover, the “effect on platelet aggregation” value with platelet aggregation (optimized ADP or fixed 29 µM ADP) was “not affected”. On Factor Xa, the “median value of Factor Xa activity” value was determined as 0.57 U/mL. Also, the “Factor Xa inhibition, return to values within % of baseline” value at Factor Xa (setting [8]) is recorded as not above 10%. The “effect on platelet activation markers” value in data set [3] is reported as “no relevant effect”. Also, in data set [4] (setting [8]), the “PT, return to values within % of baseline” value is not above 10%.

With `COC(=O)[C@H](c1ccccc1Cl)N1CCc2sccc2C1` [clopidogrel], in the data set with healthy male subjects [1], the “least squares-mean relative change in bleeding time compared with baseline” value was determined as 2.0 fold. Further, the “effect on aPTT” value in data set [5] was “did not affect”. Further, the “effect on HepTest” value in data set [6] is listed as “did not affect”. The “platelet aggregation, median relative change from baseline” value in the data set with platelet aggregation (29 µM ADP) turned out to be 0.340; in the data set on platelet aggregation (setting [7]) it was 0.249. For the same molecule, the “number of subjects identified as clopidogrel responders (more than 40% inhibition of platelet aggregation compared with baseline)” value in the data set with platelet aggregation (of 27 healthy male subjects, single dose of 300 mg clopidogrel, 24 h after administration) is 14. In addition, the “median value of Factor Xa activity” value on Factor Xa turned out to be 0.9 U/mL. For the same molecule, the “effect on Factor Xa activity” value on Factor Xa (combination compared with rivaroxaban alone) is on record as “no effect”. For the same molecule, the “effect on platelet activation markers” value in data set [3] was “pronounced decrease”. Moreover, in data set [4] (compared with baseline, combination compared with rivaroxaban monotherapy), the “effect on PT” value was “did not change”.
